The results in this text go back to patent US7939537B2, “HIV integrase inhibitors” (Istituto Di Ricerche Di Biologia Molecolare P. Angeletti …, priority 2006, dated 2011).

Structures are written as SMILES.

The test system of the test is HIV. The test can be described thus: Assay for inhibition of HIV replication (spread assay; acute HIV infection of T-lymphoid cells). The note with it: Human immunodeficiency virus 1, tested up to 1 micromolar. It is filed as cell-based. The protocol:
Assay for Inhibition of HIV Replication
Assays for the inhibition of acute HIV infection of T-lymphoid cells were conducted in accordance with Vacca, J. P. et al., Proc. Natl. Acad. Sci. USA 1994, 91: 4096. […] The compounds of Examples 6, 8, 9, 14, 15, 21-23 and 29-35 were also tested in the spread assay up to 1 micromolar, but specific IC95 values were not obtained; i.e., the IC95 values for these compounds are greater than 1 micromolar.
By IC95 is commonly meant the concentration at which the effect reaches the 95% level. Read a high IC95 as a need for much substance. In turn, `CCN(C(=O)c1ccno1)c1cccn2c(=O)c(O)c(C(=O)NCc3ccc(F)cc3)nc12` [Example 25, 9-[ethyl(isoxazol-5-ylcarbonyl)amino]-N-(4-fluorobenzyl)-3-hydroxy-4-oxo-4H-pyrido[1,2-a]pyrimidine-2-carboxamide] returned an IC95 of under 1000 nM.
The value for `CCN(C(=O)c1nnc(C)o1)c1cccn2c(=O)c(O)c(C(=O)NCc3ccc(F)cc3)nc12` [Example 26, 9-{ethyl[(5-methyl-1,3,4-oxadiazol-2-yl)carbonyl]amino}-N-(4-fluorobenzyl)-3-hydroxy-4-oxo-4H-pyrido[1,2-a]pyrimidine-2-carboxamide] was under 1000 nM.
Take `CCN(C(=O)C(=O)N1CCCC1)c1cccn2c(=O)c(O)c(C(=O)NCc3ccc(F)cc3)nc12` [Example 27, 9-{ethyl[oxo(pyrrolidin-1-yl)acetyl]amino}-N-(4-fluorobenzyl)-3-hydroxy-4-oxo-4H-pyrido[1,2-a]pyrimidine-2-carboxamide]: the IC95 is under 1000 nM.
For `CCN(C(=O)C(=O)N1CCN(C)CC1)c1cccn2c(=O)c(O)c(C(=O)NCc3ccc(F)cc3)nc12` [Example 28, 4-[[ethyl(2-{[(4-fluorobenzyl)amino]carbonyl}-3-hydroxy-4-oxo-4H-pyrido[1,2-a]pyrimidin-9-yl)amino](oxo)acetyl]-1-methylpiperazine] the value was under 1000 nM; for `Cc1cccn2c(=O)c(O)c(C(=O)NCc3ccc(F)cc3)nc12` [Example 29, N-(4-fluorobenzyl)-3-hydroxy-9-methyl-4-oxo-4H-pyrido[1,2-a]pyrimidine-2-carboxamide], over 1000 nM; for `CN(C)Cc1cccn2c(=O)c(O)c(C(=O)NCc3ccc(F)cc3)nc12` [Example 30, 9-[(dimethylamino)methyl]-N-(4-fluorobenzyl)-3-hydroxy-4-oxo-4H-pyrido[1,2-a]pyrimidine-2-carboxamide], over 1000 nM.
The value for `CON(C)Cc1cccn2c(=O)c(O)c(C(=O)NCc3ccc(F)cc3)nc12` [Example 31, N-(4-fluorobenzyl)-3-hydroxy-9-{[methoxy(methyl)amino]methyl}-4-oxo-4H-pyrido[1,2-a]pyrimidine-2-carboxamide] was over 1000 nM.
As for `O=C(NCc1ccc(F)cc1)c1nc2c(CN3CCOCC3)cccn2c(=O)c1O` [Example 32, N-(4-fluorobenzyl)-3-hydroxy-9-(morpholin-4-ylmethyl)-4-oxo-4H-pyrido[1,2-a]pyrimidine-2-carboxamide], the IC95 was over 1000 nM.
The value for `CC(=O)N1CCN(Cc2cccn3c(=O)c(O)c(C(=O)NCc4ccc(F)cc4)nc23)CC1` [Example 33, 9-[(4-acetylpiperazin-1-yl)methyl]-N-(4-fluorobenzyl)-3-hydroxy-4-oxo-4H-pyrido[1,2-a]pyrimidine-2-carboxamide] was over 1000 nM.
In turn, `O=C(NCc1cccn2c(=O)c(O)c(C(=O)NCc3ccc(F)cc3)nc12)c1ccccc1` [Example 34, 9-[(benzoylamino)methyl]-N-(4-fluorobenzyl)-3-hydroxy-4-oxo-4H-pyrido[1,2-a]pyrimidine-2-carboxamide] had an IC95 of over 1000 nM.
`O=C(NCc1ccc(F)cc1)c1nc2ccc(Br)cn2c(=O)c1O` [Example 35, 7-bromo-N-(4-fluorobenzy1)-3-hydroxy-4-oxo-4H-pyrido[1,2-a]pyrimidine-2-carboxamide] gave a concentration for an effect of 95% (IC95) of over 1000 nM.
